In ChEMBL document CHEMBL1201862, “PubChem BioAssay data set” (2004):
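Protocol summary: plate cells (96-well), add compound at 5 concentrations, incubate 48 h, interpolate endpoints linearly. Abbreviation: GI50, concentration required for 50% inhibition of growth.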 Calls of active or inactive are those of the source. Cut-off read from the data, not from the text of the source: active = GI50 up to about 1.1 µM and inactive = higher.

What was measured:
Experiment in all cases: growth of human tumour cells (NCI), 48 h
[1] = system: SNB-75
[2] = system: NCI-H522
[3] = system: MDA-MB-231
[4] = system: SF-268
[5] = system: T47D
[6] = system: SK-OV-3
[7] = system: SK-MEL-5
[8] = system: Malme-3M
[9] = system: OVCAR-3
[10] = system: K562
[11] = system: HOP-92
[12] = system: SF-295
[13] = system: CAKI-1
[14] = system: ACHN
[15] = system: SN12C
[16] = system: M14
[17] = system: SK-MEL-2
[18] = system: RPMI-8226
[19] = system: UACC-257
[20] = system: UACC-62

Row | Structure (SMILES) | GI50 [1] | GI50 [2] | GI50 [3] | GI50 [4] | GI50 [5] | GI50 [6] | GI50 [7] | GI50 [8] | GI50 [9] | GI50 [10] | GI50 [11] | GI50 [12] | GI50 [13] | GI50 [14] | GI50 [15] | GI50 [16] | GI50 [17] | GI50 [18] | GI50 [19] | GI50 [20]
1 | CSc1nc(=O)c(C#N)c(-c2ccccc2)n1C1OC(COC(C)=O)C(OC(C)=O)C(OC(C)=O)C1OC(C)=O (stereo not given) | 42.5 µM (inactive) | > 100 µM (inactive) | > 100 µM (inactive) | > 100 µM (inactive) | 86.3 µM (inactive) | > 100 µM (inactive) | 81.7 µM (inactive) | 69.3 µM (inactive) | 78.3 µM (inactive) | > 100 µM (inactive) | 46.9 µM (inactive) | > 100 µM (inactive) | > 100 µM (inactive) | > 100 µM (inactive) | > 100 µM (inactive) | > 100 µM (inactive) | > 100 µM (inactive) | > 100 µM (inactive) | > 100 µM (inactive) | > 100 µM (inactive)
2 | N=C(N)Nc1ccc(CC(N)NCC(=O)O)cc1 (stereo not given) | > 25 µM (inactive) | > 25 µM (inactive) | > 25 µM (inactive) | > 25 µM (inactive) | > 25 µM (inactive) | > 25 µM (inactive) | > 25 µM (inactive) | > 25 µM (inactive) | > 25 µM (inactive) | > 25 µM (inactive) | > 25 µM (inactive) | > 25 µM (inactive) | > 25 µM (inactive) | > 25 µM (inactive) | > 25 µM (inactive) | > 25 µM (inactive) | > 25 µM (inactive) | > 25 µM (inactive) | > 25 µM (inactive) | > 25 µM (inactive)
3 | CCOC(=O)COc1c(OC)cc(C2C3=C(COC3=O)Oc3cc4c(cc32)OCO4)cc1OC (stereo not given) | 4.62 µM (inactive) | 0.479 µM (active) | 3.03 µM (inactive) | 13.5 µM (inactive) | 2.54 µM (inactive) | 3.17 µM (inactive) | 0.244 µM (active) | 57.8 µM (inactive) | 0.528 µM (active) | 0.155 µM (active) | 14.6 µM (inactive) | 0.9 µM (active) | 3.41 µM (inactive) | 6.52 µM (inactive) | 1.72 µM (inactive) | 3.03 µM (inactive) | 8.75 µM (inactive) | 0.255 µM (active) | 9.77 µM (inactive) | 1.69 µM (inactive)
4 | O=C(Nc1ccccc1)N(CCCCN(Cc1ccccc1)C(=O)Nc1ccccc1)Cc1ccccc1 | 27.7 µM (inactive) | 95.3 µM (inactive) | 48.6 µM (inactive) | > 100 µM (inactive) | 25.9 µM (inactive) | > 100 µM (inactive) | > 100 µM (inactive) | > 100 µM (inactive) | > 100 µM (inactive) | 30.8 µM (inactive) | > 100 µM (inactive) | > 100 µM (inactive) | > 100 µM (inactive) | > 100 µM (inactive) | > 100 µM (inactive) | > 100 µM (inactive) | > 100 µM (inactive) | > 100 µM (inactive) | > 100 µM (inactive) | > 100 µM (inactive)
5 | O=[N+]([O-])c1ccc(-c2cc(O)c3nc4ccccc4n3c2)cc1 | > 40.9 µM (inactive) | > 93.1 µM (inactive) | > 100 µM (inactive) | > 56.5 µM (inactive) | 74 µM (inactive) | 22.8 µM (inactive) | > 100 µM (inactive) | > 100 µM (inactive) | > 100 µM (inactive) | > 100 µM (inactive) | > 65.9 µM (inactive) | > 100 µM (inactive) | > 100 µM (inactive) | 65.2 µM (inactive) | > 100 µM (inactive) | > 100 µM (inactive) | > 100 µM (inactive) | > 100 µM (inactive) | > 100 µM (inactive) | > 31.6 µM (inactive)
6 | c1ccc2c(c1)CCc1[nH]c3c(c1-2)-c1ccccc1CC3 | 80.5 µM (inactive) | 96.4 µM (inactive) | 33.2 µM (inactive) | 78 µM (inactive) | 90.2 µM (inactive) | > 100 µM (inactive) | > 100 µM (inactive) | > 100 µM (inactive) | 91.4 µM (inactive) | 36.7 µM (inactive) | > 100 µM (inactive) | 39.5 µM (inactive) | 91.6 µM (inactive) | > 100 µM (inactive) | > 100 µM (inactive) | 35 µM (inactive) | > 100 µM (inactive) | 43.1 µM (inactive) | > 100 µM (inactive) | > 100 µM (inactive)
7 | O=c1[nH]cc(-c2c[nH]c3ccccc23)nc1-c1c[nH]c2ccccc12 | 10.3 µM (inactive) | 6.79 µM (inactive) | 22.3 µM (inactive) | 13 µM (inactive) | 8.55 µM (inactive) | 13.4 µM (inactive) | 13.4 µM (inactive) | 11.2 µM (inactive) | 9.51 µM (inactive) | 2.96 µM (inactive) | 12.3 µM (inactive) | 4.53 µM (inactive) | 3.28 µM (inactive) | 11.6 µM (inactive) | 13.2 µM (inactive) | 10.7 µM (inactive) | 14.8 µM (inactive) | 9.73 µM (inactive) | 13 µM (inactive) | 11.1 µM (inactive)
8 | CC(=O)c1ccc(Br)cc1NC1=CC(=O)c2ncccc2C1=O | 0.242 µM (active) | 3.27 µM (inactive) | 1.88 µM (inactive) | 7.26 µM (inactive) | 3.85 µM (inactive) | 15.7 µM (inactive) | 0.322 µM (active) | 1.64 µM (inactive) | 1.61 µM (inactive) | 1.49 µM (inactive) | 12.2 µM (inactive) | 4.62 µM (inactive) | 7.59 µM (inactive) | 3.6 µM (inactive) | 7 µM (inactive) | 2.22 µM (inactive) | 4.09 µM (inactive) | 2.18 µM (inactive) | 1.48 µM (inactive) | 2.58 µM (inactive)
9 | O=C1N[C@@H]2c3c(Br)sc(Br)c3C(=O)[C@@H]2O1 | 6.14 µM (inactive) | 0.703 µM (active) | 2.41 µM (inactive) | 7.66 µM (inactive) | 9.18 µM (inactive) | 18.7 µM (inactive) | 6.59 µM (inactive) | 2.59 µM (inactive) | 1.8 µM (inactive) | 0.887 µM (active) | 5.14 µM (inactive) | 17.2 µM (inactive) | 0.877 µM (active) | 1.85 µM (inactive) | 2.93 µM (inactive) | 1.97 µM (inactive) | 16.8 µM (inactive) | 5.12 µM (inactive) | 3.32 µM (inactive) | 13.2 µM (inactive)
10 | O=C(Nc1ccn(C2CC(I)C(COC(c3ccccc3)(c3ccccc3)c3ccccc3)O2)c(=O)n1)c1ccccc1 (stereo not given) | 2.43 µM (inactive) | 11 µM (inactive) | 9.57 µM (inactive) | 12 µM (inactive) | 6.87 µM (inactive) | 15.5 µM (inactive) | 9.53 µM (inactive) | 7.78 µM (inactive) | 4.25 µM (inactive) | 5.28 µM (inactive) | 5.14 µM (inactive) | 13.6 µM (inactive) | 15.6 µM (inactive) | 12.7 µM (inactive) | 4.36 µM (inactive) | 10.8 µM (inactive) | > 10 µM (inactive) | 7.26 µM (inactive) | 10.8 µM (inactive) | 11.2 µM (inactive)
11 | CN(C)CC1CN/C(=N\C(=O)Nc2ccccc2)O1 (stereo not given) | > 100 µM (inactive) | > 100 µM (inactive) | > 100 µM (inactive) | > 100 µM (inactive) | > 100 µM (inactive) | > 100 µM (inactive) | > 100 µM (inactive) | > 100 µM (inactive) | > 10 µM (inactive) | > 100 µM (inactive) | > 100 µM (inactive) | > 100 µM (inactive) | > 100 µM (inactive) | > 100 µM (inactive) | > 100 µM (inactive) | > 100 µM (inactive) | > 100 µM (inactive) | > 100 µM (inactive) | > 100 µM (inactive) | > 100 µM (inactive)
12 | N=C(/C=C/c1ccc(-c2cn3cc(/C=C/C(=N)N4CCOCC4)ccc3n2)cc1)N1CCOCC1 | > 100 µM (inactive) | 62.8 µM (inactive) | > 100 µM (inactive) | > 100 µM (inactive) | > 100 µM (inactive) | > 100 µM (inactive) | > 100 µM (inactive) | > 100 µM (inactive) | > 100 µM (inactive) | > 100 µM (inactive) | > 100 µM (inactive) | > 100 µM (inactive) | > 100 µM (inactive) | > 100 µM (inactive) | > 100 µM (inactive) | > 100 µM (inactive) | > 100 µM (inactive) | 76.4 µM (inactive) | > 100 µM (inactive) | > 100 µM (inactive)
13 | Cc1cc2ccccc2c[n+]1CC(=O)CC([O-])(C(F)(F)F)C(F)(F)F | > 100 µM (inactive) | 85.1 µM (inactive) | > 100 µM (inactive) | > 100 µM (inactive) | > 100 µM (inactive) | > 100 µM (inactive) | 50.7 µM (inactive) | > 100 µM (inactive) | 53.2 µM (inactive) | 72.8 µM (inactive) | 58.1 µM (inactive) | > 100 µM (inactive) | > 100 µM (inactive) | > 100 µM (inactive) | > 100 µM (inactive) | > 100 µM (inactive) | > 100 µM (inactive) | 69.7 µM (inactive) | > 100 µM (inactive) | > 100 µM (inactive)
14 | CCOC(=O)Oc1cc2c(c(OC)c1OC)-c1ccc(OC)c(=O)cc1C(NC(C)=O)CC2 (stereo not given) | 0.0119 µM (active) | 0.014 µM (active) | 0.0281 µM (active) | 0.0197 µM (active) | > 100 µM (inactive) | 0.114 µM (active) | 0.0116 µM (active) | < 0.015 µM (active) | 0.0166 µM (active) | 0.0138 µM (active) | 0.0968 µM (active) | 0.0574 µM (active) | 0.239 µM (active) | 0.398 µM (active) | 0.034 µM (active) | 0.0218 µM (active) | 0.0123 µM (active) | 0.0141 µM (active) | 0.0146 µM (active) | 0.0156 µM (active)
